Measured values as given in patent US20090227493A1, “COMBINED DRUG FOR TREATING DIABETES” (DAIICHI SANKYO COMPANY, LIMITED, priority 2005, published 2009).

How the values were obtained:
[1] = test system: diabetic obese rats (male ZDF rats); assay: Test Example 2: effect of combined use of various GLP-1 receptor agonists and compound A, same manner as Test Example 1; conditions: combined use with compound A
[2] = test system: diabetic obese rats (male ZDF rats); assay: Test Example 1: effect of combined use of GLP-1 (7-36) amide and compound A; format: in vivo, rat; conditions: from start of treatment to 57 days; FIG. 1-C
From the text: In this test, commercially available diabetic obese rats (male ZDF rats, 8 weeks old at the start of administration, purchased from Charles River Laboratories Japan, Inc.) were used. ZDF rats used in this test were acclimatized to the feeding time from 9:30 to 16:30 from one week before the start of treatment.
Rats were divided into four groups: the control group, compound A treatment group (group A), GLP-1 (7-36) amide treatment group (group B), and compound A plus GLP-1 (7-36) amide treatment group (group C).
The control group and group B were allowed free access to a powder feed (FR-2: Funabashi Farms Co., Ltd.) from 9:30 to 16:30. […] The dose of compound A was calculated as 16.1 μg/kg/day based on the food intake during this period. […]
Glycosylated hemoglobin (HbA1c) levels were measured at 42 days after the start of treatment, and blood sugar levels in full feeding were measured at 47 days. […]
Furthermore, insulin in the pancreas was extracted by the hydrochloric acid-ethanol method (Diabetelogia, Vol. 27, pp. 454-459 [1984]), and the insulin concentration in the extract was determined by using a rat insulin RIA kit manufactured by Linco Research, Inc. to obtain the pancreatic insulin content. […]
Blood was collected from the caudal vein of the rats, and blood sugar levels were measured with Glucoroder GXT (A & T Corporation). HbA1c levels were measured with DC2000 (Bayer Medical Ltd.).

Compound | weight gain by compound A [1] | decrease in HbA1c levels [1] | pancreatic insulin content [1] | increases in body weight (weight gain) [2]
CCCCCCCCCCCCCCCC(=O)N[C@@H](CCC(=O)NCCCC[C@H](NC(=O)[C@H](C)NC(=O)[C@H](C)NC(=O)[C@H](CCC(N)=O)NC(=O)CNC(=O)[C@H](CCC(=O)O)NC(=O)[C@H](CC(C)C)NC(=O)[C@H](Cc1ccc(O)cc1)NC(=O)[C@H](CO)NC(=O)[C@H](CO)NC(=O)[C@@H](NC(=O)[C@H](CC(=O)O)NC(=O)[C@H](CO)NC(=O)[C@@H](NC(=O)[C@H](Cc1ccccc1)NC(=O)[C@@H](NC(=O)CNC(=O)[C@H](CCC(=O)O)NC(=O)[C@H](C)NC(=O)[C@@H](N)Cc1cnc[nH]1)[C@@H](C)O)[C@@H](C)O)C(C)C)C(=O)N[C@@H](CCC(=O)O)C(=O)N[C@@H](Cc1ccccc1)C(=O)N[C@H](C(=O)N[C@@H](C)C(=O)N[C@@H](Cc1c[nH]c2ccccc12)C(=O)N[C@@H](CC(C)C)C(=O)N[C@H](C(=O)N[C@@H](CCCNC(=N)N)C(=O)NCC(=O)N[C@@H](CCCNC(=N)N)C(=O)NCC(=O)O)C(C)C)[C@@H](C)CC)C(=O)O [Arg^34 Lys^26(N^6-(γ-L-glutamyl(N^α-palmitoyl))) GLP-1 (7-37)] | suppressing | – | – | –
exendin 3 | suppressing | synergistic effect | marked increase | –
COc1ccc2nc(COc3ccc(CC4SC(=O)NC4=O)cc3)n(C)c2c1 (centres unmarked) [compound A, 5-[4-(6-Methoxy-1-methyl-1H-benzimidazol-2-ylmethoxy)benzyl]thiazolidine-2,4-dione] | – | – | – | weight gain
